Experimental findings from patent US6559115B1, “Detergent tablet with high mechanical and dissolution characteristics” (The Procter & Gamble Company, priority 1998, dated 2003) are described below.

The nature of series [1]: Conductivity test defining a highly soluble compound. The class given is physicochemical. To be noted: conductivity reaches 80% of maximum in less than 10 seconds.
Protocol: A solution is prepared as follows comprising de-ionised water as well as 20 grams per liter of a specific compound:
1—20 g of the specific compound is placed in a Sotax Beaker. This beaker is placed in a constant temperature bath set at 10° C. A stirrer with a marine propeller is placed in the beaker so that the bottom of the stirrer is at 5 mm above the bottom of the Sotax beaker. The mixer is set at a rotation speed of 200 turns per minute.
2—980 g of the de-ionised water is introduced into the Sotax beaker.
3—10 s after the water introduction, the conductivity of the solution is measured, using a conductivity meter.
4—Step 3 is repeated after 20, 30, 40, 50, 1 min, 2 min, 5 min and 10 min after step 2.
5—The measurement taken at 10 min is used as the plateau value or maximum value.
Series [2] is described as follows: Tablet compression and tensile strength (diametrical fracture stress). The class given is physicochemical. The conditions noted are these: tensile strength increased by over 30% by 3% compound at compacting force 3000N. From the text:
For the purpose of this invention, the Cohesive Effect on the particulate material of a detergent matrix is characterised by the force required to break a tablet based on the examined detergent matrix pressed under controlled compression conditions. […] Means to assess tablet strength (also refer to diametrical fracture stress) are given in Pharmaceutical dosage forms: tablets volume 1 Ed. H. A. Lieberman et al, published in 1989.
The temperature of the addition is between 10 and 80 C., more pref. between 10 and 40 C.
For a cylindrical tablet, the tensile strength corresponds to the diametrical fracture stress (DFS) which is a way to express the strength of a tablet, and is determined by the following equation: [formula]
Where F is the maximum force (Newton) to cause tensile failure (fracture) measured by a VK 200 tablet hardness tester supplied by Van Kell industries, Inc. D is the diameter of the tablet, and t the thickness of the tablet.
iii) Tablets were then made the following way: 50 g of the mixture was introduced into a mould of circular shape with a diameter of 5.5 cm and compressed to give a tablet tensile strength (or diametrical fracture stress) of 15 kPa. The force required to obtain a tablet tensile strength of 15 kPa was 2400 N. The tablet height was 1.94 cm.

For “sodium di isoalkylbenzene sulphonate [Compounds of Example 1]”, in series [1], the “Highly soluble compound according to the invention” value is “highly soluble”. Also, in series [2], the “Cohesive effect on the particulate material” value is “having a cohesive effect”.
